{
  "source": "patent US6130248A",
  "about": "“Tricarboxylic acid-containing oxyalkyl esters and uses thereof” (Bar-ILAn University, priority 1996, dated 2000)",
  "experiment_in_all_cases": "Clonogenicity of established tumor cell lines (soft agar)",
  "format_in_all_cases": "cell-based, human",
  "key": {"K562 (Erytholeukemia)": {"system": "K562 (Erytholeukemia)", "protocol": "(§1) Inhibition of tumor growth was tested using cell lines as follows: […]"}, "SMS-KAN (Neuroblastoma)": {"system": "SMS-KAN (Neuroblastoma)", "protocol": "as §1"}, "NBAS-5 (Neuroblastoma)": {"system": "NBAS-5 (Neuroblastoma)", "protocol": "as §1"}, "[1]": {"system": "MCF7-40F (Breast Carcinoma)", "protocol": "as §1"}, "LA1-5S (Neuroblastoma)": {"system": "LA1-5S (Neuroblastoma)", "protocol": "as §1"}, "SK-N-MC (Neuroblastoma)": {"system": "SK-N-MC (Neuroblastoma)", "protocol": "as §1"}, "SK-N-SH (Neuroblastoma)": {"system": "SK-N-SH (Neuroblastoma)", "protocol": "as §1"}, "NBL-W-N (Neuroblastoma)": {"system": "NBL-W-N (Neuroblastoma)", "protocol": "as §1"}, "[2]": {"conditions": "Homo sapiens, K562 clonogenicity"}, "[3]": {"conditions": "Homo sapiens, SMS-KAN clonogenicity"}, "[4]": {"conditions": "Homo sapiens, NBAS-5 clonogenicity"}, "[5]": {"conditions": "Homo sapiens, MCF7-40F clonogenicity"}, "[6]": {"conditions": "Homo sapiens, LA1-5S clonogenicity"}, "[7]": {"conditions": "Homo sapiens, SK-N-MC clonogenicity"}, "[8]": {"conditions": "Homo sapiens, SK-N-SH clonogenicity"}, "[9]": {"conditions": "Homo sapiens, NBL-W-N clonogenicity"}},
  "data": [
    {"smiles": "CCCC(=O)OCOC(=O)CCCC(=O)O", "note": "[GOMB, mono-(butyroyloxymethyl)glutarate]", "values": [
      {"measurement": "IC50", "setting": "K562 (Erytholeukemia); [2]", "value": 43.3, "unit": "µM"},
      {"measurement": "IC90", "setting": "K562 (Erytholeukemia); [2]", "value": 97, "unit": "µM"},
      {"measurement": "AB/GOMB IC50 Ratio", "setting": "K562 (Erytholeukemia); K562", "value": 17.8},
      {"measurement": "AB/GOMB IC90 Ratio", "setting": "K562 (Erytholeukemia); K562", "value": 68.6},
      {"measurement": "IC50", "setting": "SMS-KAN (Neuroblastoma); [3]", "value": 27, "unit": "µM"},
      {"measurement": "IC90", "setting": "SMS-KAN (Neuroblastoma); [3]", "value": 80, "unit": "µM"},
      {"measurement": "AB/GOMB IC50 Ratio", "setting": "SMS-KAN (Neuroblastoma); SMS-KAN", "value": 42},
      {"measurement": "AB/GOMB IC90 Ratio", "setting": "SMS-KAN (Neuroblastoma); SMS-KAN", "value": 26},
      {"measurement": "IC50", "setting": "NBAS-5 (Neuroblastoma); [4]", "value": 16, "unit": "µM"},
      {"measurement": "IC90", "setting": "NBAS-5 (Neuroblastoma); [4]", "value": 38, "unit": "µM"},
      {"measurement": "AB/GOMB IC50 Ratio", "setting": "NBAS-5 (Neuroblastoma); NBAS-5", "value": 23.2},
      {"measurement": "AB/GOMB IC90 Ratio", "setting": "NBAS-5 (Neuroblastoma); NBAS-5", "value": 343},
      {"measurement": "IC50", "setting": "[1]; [5]", "value": 65.9, "unit": "µM"},
      {"measurement": "IC90", "setting": "[1]; [5]", "value": 85.3, "unit": "µM"},
      {"measurement": "AB/GOMB IC50 Ratio", "setting": "[1]; MCF7-40F", "value": 12.4},
      {"measurement": "AB/GOMB IC90 Ratio", "setting": "[1]; MCF7-40F", "value": 37.3},
      {"measurement": "IC50", "setting": "LA1-5S (Neuroblastoma); [6]", "value": 39, "unit": "µM"},
      {"measurement": "IC90", "setting": "LA1-5S (Neuroblastoma); [6]", "value": 59, "unit": "µM"},
      {"measurement": "AB/GOMB IC50 Ratio", "setting": "LA1-5S (Neuroblastoma); LA1-5S", "value": 42},
      {"measurement": "AB/GOMB IC90 Ratio", "setting": "LA1-5S (Neuroblastoma); LA1-5S", "value": 45},
      {"measurement": "IC50", "setting": "SK-N-MC (Neuroblastoma); [7]", "value": 16, "unit": "µM"},
      {"measurement": "IC90", "setting": "SK-N-MC (Neuroblastoma); [7]", "value": 35, "unit": "µM"},
      {"measurement": "AB/GOMB IC50 Ratio", "setting": "SK-N-MC (Neuroblastoma); SK-N-MC", "value": 13.4},
      {"measurement": "AB/GOMB IC90 Ratio", "setting": "SK-N-MC (Neuroblastoma); SK-N-MC", "value": 37.5},
      {"measurement": "IC50", "setting": "SK-N-SH (Neuroblastoma); [8]", "value": 28, "unit": "µM"},
      {"measurement": "IC90", "setting": "SK-N-SH (Neuroblastoma); [8]", "value": 95, "unit": "µM"},
      {"measurement": "AB/GOMB IC50 Ratio", "setting": "SK-N-SH (Neuroblastoma); SK-N-SH", "value": 35.6},
      {"measurement": "AB/GOMB IC90 Ratio", "setting": "SK-N-SH (Neuroblastoma); SK-N-SH", "value": 37.8},
      {"measurement": "IC50", "setting": "NBL-W-N (Neuroblastoma); [9]", "value": 25, "unit": "µM"},
      {"measurement": "IC90", "setting": "NBL-W-N (Neuroblastoma); [9]", "value": 70, "unit": "µM"},
      {"measurement": "AB/GOMB IC50 Ratio", "setting": "NBL-W-N (Neuroblastoma); NBL-W-N", "value": 19.6},
      {"measurement": "AB/GOMB IC90 Ratio", "setting": "NBL-W-N (Neuroblastoma); NBL-W-N", "value": 44}
    ]}
  ]
}
